{"source": "paper PMC4567403", "about": "(Bioorganic & medicinal chemistry letters, 2015)", "key": {"P450 1A2": {"molecular_target": "T1, P450 1A2 (Homo sapiens, UniProt P05177)", "T1 sequence (P05177 1-516)": "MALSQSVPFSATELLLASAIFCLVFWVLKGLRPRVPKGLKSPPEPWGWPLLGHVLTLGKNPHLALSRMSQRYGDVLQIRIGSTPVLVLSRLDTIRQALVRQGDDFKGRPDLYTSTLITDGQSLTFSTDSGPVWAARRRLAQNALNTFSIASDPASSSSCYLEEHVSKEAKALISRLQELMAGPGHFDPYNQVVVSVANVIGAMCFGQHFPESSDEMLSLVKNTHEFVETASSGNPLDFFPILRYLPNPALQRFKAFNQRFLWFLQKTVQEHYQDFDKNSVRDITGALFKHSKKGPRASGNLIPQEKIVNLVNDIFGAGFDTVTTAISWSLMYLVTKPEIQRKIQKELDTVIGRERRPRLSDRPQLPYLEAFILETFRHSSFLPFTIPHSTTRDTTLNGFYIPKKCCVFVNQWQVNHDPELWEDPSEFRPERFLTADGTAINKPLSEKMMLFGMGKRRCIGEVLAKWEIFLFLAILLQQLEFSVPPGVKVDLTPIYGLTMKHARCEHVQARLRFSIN", "assay": "P450 inhibition 1A2", "assay_type": "in vitro ADME", "conditions": "1A2, at 30 μM"}, "P450 2C9": {"molecular_target": "P450 2C9 (Homo sapiens, UniProt P11712)", "sequence (P11712 whole entry)": "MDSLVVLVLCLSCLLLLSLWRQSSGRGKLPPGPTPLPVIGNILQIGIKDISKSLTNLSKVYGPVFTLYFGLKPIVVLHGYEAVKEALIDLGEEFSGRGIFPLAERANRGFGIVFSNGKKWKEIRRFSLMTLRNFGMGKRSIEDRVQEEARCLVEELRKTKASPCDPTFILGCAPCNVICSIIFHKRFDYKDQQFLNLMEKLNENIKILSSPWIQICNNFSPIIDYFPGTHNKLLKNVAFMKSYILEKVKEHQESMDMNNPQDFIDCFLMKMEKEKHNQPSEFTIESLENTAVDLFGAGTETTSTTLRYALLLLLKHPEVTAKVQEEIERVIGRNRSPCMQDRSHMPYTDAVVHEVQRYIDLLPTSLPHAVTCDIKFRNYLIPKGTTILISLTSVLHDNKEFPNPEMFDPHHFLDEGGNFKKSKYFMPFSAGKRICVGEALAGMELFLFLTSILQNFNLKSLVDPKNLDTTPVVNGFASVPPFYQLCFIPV", "assay": "P450 inhibition 2C9", "assay_type": "in vitro ADME", "conditions": "2C9, at 30 μM"}, "Pharmacokinetics in rat": {"assay": "Pharmacokinetics in rat", "assay_type": "in vivo, male Sprauge- Dawley rats"}, "[1]": {"assay": "Microsomal intrinsic clearance, human", "assay_type": "in vitro ADME", "conditions": "human microsomal studies, in words"}, "SW620 cell lines": {"tested_on": "SW620 cell lines", "conditions": "cited from earlier work"}, "P450 3A4": {"molecular_target": "P450 3A4 (Homo sapiens, UniProt P08684)", "sequence (P08684 whole entry)": "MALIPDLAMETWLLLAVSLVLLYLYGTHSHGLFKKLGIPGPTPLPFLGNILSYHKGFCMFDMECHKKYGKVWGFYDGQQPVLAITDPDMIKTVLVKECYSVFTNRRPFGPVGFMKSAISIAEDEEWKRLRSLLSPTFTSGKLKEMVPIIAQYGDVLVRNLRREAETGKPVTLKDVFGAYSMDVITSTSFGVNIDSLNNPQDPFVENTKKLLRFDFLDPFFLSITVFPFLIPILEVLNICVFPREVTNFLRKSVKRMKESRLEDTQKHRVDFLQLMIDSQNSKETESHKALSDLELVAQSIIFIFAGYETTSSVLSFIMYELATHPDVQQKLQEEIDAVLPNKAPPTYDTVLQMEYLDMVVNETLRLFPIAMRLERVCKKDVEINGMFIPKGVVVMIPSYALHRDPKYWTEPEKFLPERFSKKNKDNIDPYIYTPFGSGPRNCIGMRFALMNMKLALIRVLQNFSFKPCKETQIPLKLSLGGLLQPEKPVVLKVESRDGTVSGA", "assay": "P450 inhibition 3A4", "assay_type": "in vitro ADME", "conditions": "3A4, at 30 μM"}, "P450 2D6": {"molecular_target": "P450 2D6 (Homo sapiens, UniProt P10635)", "sequence (P10635 whole entry)": "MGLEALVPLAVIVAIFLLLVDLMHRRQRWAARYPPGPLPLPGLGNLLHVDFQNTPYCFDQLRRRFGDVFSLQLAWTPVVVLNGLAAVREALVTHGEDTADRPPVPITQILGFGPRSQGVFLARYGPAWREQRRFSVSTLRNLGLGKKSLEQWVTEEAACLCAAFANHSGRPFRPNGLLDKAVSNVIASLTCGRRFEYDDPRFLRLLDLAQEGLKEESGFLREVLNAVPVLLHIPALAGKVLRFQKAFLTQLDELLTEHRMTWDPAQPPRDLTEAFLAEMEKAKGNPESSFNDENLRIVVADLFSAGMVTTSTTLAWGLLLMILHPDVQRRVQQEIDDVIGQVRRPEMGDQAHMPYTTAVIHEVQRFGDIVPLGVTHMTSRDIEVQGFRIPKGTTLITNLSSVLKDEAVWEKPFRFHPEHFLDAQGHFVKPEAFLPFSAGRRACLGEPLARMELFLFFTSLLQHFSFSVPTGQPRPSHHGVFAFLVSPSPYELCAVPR", "assay": "P450 inhibition 2D6", "assay_type": "in vitro ADME", "conditions": "2D6, at 30 μM"}, "[2]": {"assay": "Microsomal intrinsic clearance, mouse", "assay_type": "in vitro ADME", "conditions": "in words"}, "[3]": {"tested_on": "e-cadherin expression in SW620 cells", "assay": "In-Cell-Western", "assay_type": "cell-based", "conditions": "10 μM compound, average of two assessments"}}, "data": [{"compound": "O=C(NCCCCNC(=O)c1cccnc1O)c1cc(-c2ccccc2)on1", "note": "[11r]", "values": [{"measurement": "inhibition of P450 isozyme", "setting": "P450 1A2", "value": "No inhibition"}, {"measurement": "inhibition of P450 isozyme", "setting": "P450 2C9", "value": "No inhibition"}, {"measurement": "exposure", "setting": "Pharmacokinetics in rat; IV and IP dosing", "value": "suitable"}, {"measurement": "half life", "setting": "Pharmacokinetics in rat; IV dose in rat, 1 mg/kg", "value": "long"}, {"measurement": "intrinsic clearance", "setting": "[1]", "value": "neglible"}, {"measurement": "EMT phenotype", "setting": "SW620 cell lines", "value": "capable of reversing the EMT phenotype"}, {"measurement": "invasive potential", "setting": "SW620 cell lines", "value": "reducing the invasive potential"}, {"measurement": "inhibition of P450 isozyme", "setting": "P450 3A4", "value": "No inhibition"}, {"measurement": "inhibition of P450 isozyme", "setting": "P450 2D6", "value": "No inhibition"}, {"measurement": "mouse clearance", "setting": "[2]", "value": "well in excess of hepatic blood flow"}]}, {"compound": "O=C(NCCCn1ccnc1)c1noc2ccccc12", "note": "[compound 3]", "values": [{"measurement": "Fold change of e-cadherin expression", "setting": "[3]", "value": "failed to demonstrate significant restoration"}]}, {"compound": "O=C(NCCCN1CCOCC1)c1n[nH]c2ccccc12", "note": "[compound 4]", "values": [{"measurement": "Fold change of e-cadherin expression", "setting": "[3]", "value": "failed to demonstrate significant restoration"}]}, {"compound": "Cn1nc(C(=O)NCCCCc2ccncc2)cc1-c1ccccc1", "note": "[compound 5]", "values": [{"measurement": "Fold change of e-cadherin expression", "setting": "[3]", "value": "failed to demonstrate significant restoration"}]}, {"compound": "Cc1c(C(=O)NCCCCc2ccncc2)nn(C)c1-c1ccccc1", "note": "[compound 6]", "values": [{"measurement": "Fold change of e-cadherin expression", "setting": "[3]", "value": "failed to demonstrate significant restoration"}]}, {"compound": "CC(CNC(=O)c1cc(-c2cccs2)on1)c1ccncc1", "note": "(stereo not drawn) [compound 7]", "values": [{"measurement": "Fold change of e-cadherin expression", "setting": "[3]", "value": "failed to demonstrate significant restoration"}]}]}
